# Measured values as given in patent publication US5629285A, “Inhibitors of TNF-α secretion” (Immunex Corporation, priority 1996, dated 1997).
# What was measured:
# TNF-α secretion = test: Inhibition of TNF-α release by anti-CD3 + PMA stimulated peripheral blood T-cells (ELISA); assay type: cell-based, human; parameters: key to TNF-α (pg/ml), 3 Hrs.: .dagger.: undetectable
# Protocol: (§1) Human peripheral blood T-cells were purified from peripheral blood mononuclear cells by rosetting with 2-aminoethylisothiouronium bromide hydrobromide-treated sheep erythrocytes. After hypotonic lysis of sheep erythrocytes, monocytes were depleted by plastic adherence for one hour at 37° C. The peripheral […] T-cells were stimulated with anti-CD3 antibody (OKT3) which was immobilized on the culture wells at 10 μg/ml in PBS plus […] of the phorbol ester, PMA. Culture medium comprised RPMI 1640 medium containing 10% fetal bovine serum, 50 U/ml penicillin, and 50 μg/ml streptomycin. The stimulation was performed in the presence or absence of the inhibitor Compound 1 (200 μM), and TNF-α in the medium was assayed by ELISA.
# TNF-β secretion = test: TNF-β production by anti-CD3 + PMA stimulated peripheral blood T-cells; assay type: cell-based, human; parameters: key to TNF-β (pg/ml), 3 Hrs.: .dagger.: undetectable
# Protocol: [The source words this procedure for another target and reports this target under the same test.] as §1
# IFN-γ secretion = test: IFN-γ production by anti-CD3 + PMA stimulated peripheral blood T-cells; assay type: cell-based, human
# Protocol: [The source words this procedure for another target and reports this target under the same test.] as §1
# cell surface TNF-α = test: Cell surface TNF-α on PMA + ionomycin-stimulated human T-cell clone PL-1 (TNFR:Fc staining, FACS); assay type: cell-based
# Protocol: (§2) Detection of cell surface TNF-α was performed by staining with an Fc fusion protein consisting of an Fc portion of a human IgG1 molecule (IgGFc) coupled with an extracellular domain of TNF receptor (p80). Detection of cell surface ligands for 41BB and CD40 was performed by staining with analogous Fc fusion proteins consisting of IgGFc and extracellular domains of 41BB and CD40, respectively. […] TNFR:Fc and IL-4R:Fc fusion proteins are described in EP 0 464 533, incorporated herein by reference. The same general procedures used to construct the TNFR:Fc and IL-4R:Fc fusion molecules were utilized in the construction of the 41BB:Fc and CD40:Fc molecules. Fc fusion proteins bound to their respective cell-surface ligands were then detected with a biotinylated anti-human IgG1 followed by streptavidin-phycoerythrin. The intensity of staining was measured by a FACS (fluorescence activated cell sorting) scan flow cytometer.
# 41BBL = test: Cell surface 41BBL on PMA + ionomycin-stimulated human T-cell clone PL-1 (41BB:Fc staining, FACS); assay type: cell-based
# Protocol: as §2
# CD40L = test: Cell surface CD40L on PMA + ionomycin-stimulated human T-cell clone PL-1 (CD40:Fc staining, FACS); assay type: cell-based
# Protocol: as §2
# IL-4 = test: Cell surface IL-4 on PMA + ionomycin-stimulated human T-cell clone PL-1 (IL-4R:Fc staining, negative control); assay type: cell-based; conditions: + Compound 1 (10 without)
# Protocol: as §2
# serum TNF-α [1] = test: In vivo inhibition of TACE: LPS-induced serum TNF levels, 500 μg compound s.c.; parameters: species or system Balb/c mice; conditions: for Serum TNF-α level: 500 μg s.c. with 400 μg LPS i.v., serum 2 hours after LPS, pooled from two mice, Saline/DMSO control 157
# Protocol: Female Balb/c mice (18-20 g) were injected i.v. with 400 μg of LPS. Simultaneously, the mice were injected subcutaneously with 500 μg of Compound A or Compound 1 in 0.5 ml of saline containing 0.02% DMSO. Control mice received LPS intravenously and saline/DMSO subcutaneously. Two hours following the LPS injection, serum was obtained and pooled from two mice in each treatment group.
# In a similar manner to the procedure described above, mice were injected i.v. with 400 μg LPS. Simultaneously, the mice were injected subcutaneously with 500 μg Compound 1 in 0.5 ml saline containing 0.02% DMSO. Two hours later, serum was obtained and pooled. TNF-α levels were determined by ELISA.
# serum TNF-α [2] = test: In vivo inhibition of TACE: LPS-induced serum TNF levels, 250 μg compound s.c.; parameters: species or system Balb/c mice; conditions: 2 hours; for serum TNF-α, mean optical density (OD) in the ELISA: 250 μg s.c. in saline/DMSO with 450 μg LPS i.v., three mice, LPS + Saline + DMSO 0.268 ± 0.040, background OD 0.162±0.003; for effect on serum TNF-α levels in LPS-stimulated mice: 250 μg s.c., 450 μg LPS i.v.
# Protocol: Female Balb/c mice (18-20 g) were injected i.v. with 450 μg of LPS. Simultaneously, the mice were injected subcutaneously with 250 μg of Compound A or Compound 1 in 0.25 ml of saline containing 0.02% DMSO. Control mice received LPS intravenously and saline/DMSO subcutaneously. Two hours following the LPS injection, serum was obtained from three mice in each treatment group. TNF-α levels were determined by ELISA. The results are expressed as the mean optical density (OD) obtained in the ELISA from each treatment group, and are shown in Table V. The background OD of the control sample was 0.162±0.003.
# purified TACE = purified TACE (Homo sapiens, UniProt P78536); test: Serum stability in normal mouse serum, read out as inhibitory efficacy against purified TACE; assay type: in vitro ADME; conditions: 50 μM in normal mouse serum, 37° C., after 40 minutes
# purified TACE, sequence (P78536 215-824): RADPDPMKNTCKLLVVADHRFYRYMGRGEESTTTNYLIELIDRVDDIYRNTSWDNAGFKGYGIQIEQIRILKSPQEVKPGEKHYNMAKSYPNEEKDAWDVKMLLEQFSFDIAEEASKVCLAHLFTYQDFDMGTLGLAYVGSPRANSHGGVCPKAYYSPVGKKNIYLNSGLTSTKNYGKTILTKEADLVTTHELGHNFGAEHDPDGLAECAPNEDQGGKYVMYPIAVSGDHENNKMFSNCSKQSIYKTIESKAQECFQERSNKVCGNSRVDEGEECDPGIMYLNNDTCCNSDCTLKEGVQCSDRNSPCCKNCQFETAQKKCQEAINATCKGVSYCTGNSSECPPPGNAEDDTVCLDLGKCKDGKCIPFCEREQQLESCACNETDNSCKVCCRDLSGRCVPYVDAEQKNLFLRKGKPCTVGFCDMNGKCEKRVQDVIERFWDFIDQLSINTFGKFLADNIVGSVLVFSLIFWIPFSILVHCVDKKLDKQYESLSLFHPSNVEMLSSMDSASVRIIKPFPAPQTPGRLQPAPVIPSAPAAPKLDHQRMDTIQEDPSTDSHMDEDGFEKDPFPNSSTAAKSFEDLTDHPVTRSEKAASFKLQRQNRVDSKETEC
# Protocol: Each of Compound 1 and Compound A was diluted to 50 μM in normal mouse serum and incubated at 37° C. At various times, aliquots were withdrawn, diluted 100-fold into ice-cold PBS, and tested for inhibitory, efficacy against purified TACE.
# [3] = with Compound 1 200 μM, 24 Hrs.
# [4] = with Compound 1 200 μM, 48 Hrs.
smiles,measurement,setting,value
"CC(C)CC(CC(=O)NO)C(=O)N[C@@H](Cc1ccc2ccccc2c1)C(=O)N[C@@H](C)C(=O)NCCN (stereo partly drawn) [Compound 1, N-{D,L-2-(hydroxyaminocarbonyl)methyl-4-methylpentanoyl}-L-3-(2'-naphthyl) alanyl-L-alanine, 2-aminoethyl amide]",inhibition of TNF-α release,"TNF-α secretion; 200 μM, 48 hours",63%
same,TNF-α in the medium,"TNF-α secretion; 200 μM, after 3 hours, 100 pg/ml without compound",no detectable
same,"TNF-α (pg/ml), 3 Hrs.","TNF-α secretion; with Compound 1 200 μM, medium of stimulated peripheral blood T cells, 3 Hrs.",.dagger.
same,"TNF-α (pg/ml), 24 Hrs.","TNF-α secretion; with Compound 1 200 μM, medium of stimulated peripheral blood T cells, 24 Hrs.",100 pg/mL
same,"TNF-α (pg/ml), 48 Hrs.","TNF-α secretion; with Compound 1 200 μM, medium of stimulated peripheral blood T cells, 48 Hrs.",300 pg/mL
same,inhibitory effect on the release of TNF-β,"TNF-β secretion; 200 μM, 24 and 48 hours",no inhibitory effect
same,"TNF-β (pg/ml), 3 Hrs.","TNF-β secretion; with Compound 1 200 μM, 3 Hrs.",.dagger.
same,"TNF-β (pg/ml), 24 Hrs.",TNF-β secretion; [3],160 pg/mL
same,"TNF-β (pg/ml), 48 Hrs.",TNF-β secretion; [4],1050 pg/mL
same,inhibitory effect on the release of interferon-γ,"IFN-γ secretion; 200 μM, 24 and 48 hours",no inhibitory effect
same,"IFN-γ (ELISA OD), 3 Hrs.","IFN-γ secretion; with Compound 1 200 μM, 3 Hrs.",0.2 ELISA OD
same,"IFN-γ (ELISA OD), 24 Hrs.",IFN-γ secretion; [3],0.9 ELISA OD
same,"IFN-γ (ELISA OD), 48 Hrs.",IFN-γ secretion; [4],1.08 ELISA OD
same,cell surface TNF-α (MFI),"cell surface TNF-α; 4h after stimulation, + Compound 1 (83 without)","3040 MFI, arbitrary units"
same,cell surface TNF-α (MFI),"cell surface TNF-α; 18h after stimulation, + Compound 1 (7 without)","616 MFI, arbitrary units"
same,increase in TNFR:Fc binding,"cell surface TNF-α; 18 hours of stimulation, presence vs absence of Compound 1",100 fold
same,cell surface 41BBL (MFI),"41BBL; 4h after stimulation, + Compound 1 (428 without)","344 MFI, arbitrary units"
same,cell surface 41BBL (MFI),"41BBL; 18h after stimulation, + Compound 1 (5 without)","9 MFI, arbitrary units"
same,enhancement of 41BB:Fc binding,41BBL; 18 hours of stimulation,approximately 2 fold
same,increase on 41BB:Fc binding,41BBL; four hours of stimulation,no increase
same,cell surface CD40L (MFI),"CD40L; 4h after stimulation, + Compound 1 (107 without)","107 MFI, arbitrary units"
same,cell surface CD40L (MFI),"CD40L; 18h after stimulation, + Compound 1 (19 without)","46 MFI, arbitrary units"
same,enhancement of CD40:Fc binding,CD40L; 18 hours of stimulation,approximately 2 fold
same,increase on CD40:Fc binding,CD40L; four hours of stimulation,no increase
same,cell surface IL-4 (MFI),IL-4; 4h after stimulation,"10 MFI, arbitrary units"
same,cell surface IL-4 (MFI),IL-4; 18h after stimulation,"10 MFI, arbitrary units"
same,Serum TNF-α level,serum TNF-α [1],undetectable
same,reduction of serum TNF-α levels in a murine model of LPS-induced sepsis syndrome,"serum TNF-α [1]; 25 mg/kg, from Tables III and IV",at least 80%
same,LPS-induced serum TNF level,"serum TNF-α [1]; Experiment No. 1, 500 μg s.c., 400 μg LPS i.v., 2 hours, LPS only 1696, LPS + Saline 1268",301 pg/mL
same,LPS-induced serum TNF level,"serum TNF-α [1]; Experiment No. 2, 500 μg s.c., 400 μg LPS i.v., 2 hours, LPS only 2527, LPS + Saline 1768",269 pg/mL
same,LPS-induced serum TNF level,"serum TNF-α [1]; Experiment No. 3, 500 μg s.c., 400 μg LPS i.v., 2 hours, LPS only 1833, LPS + Saline 1732",281 pg/mL
same,reduction of serum TNF-α levels as compared to LPS only,"serum TNF-α [1]; experiment 1, 500 μg s.c.",82%
same,reduction of serum TNF-α levels as compared to LPS+saline,"serum TNF-α [1]; experiment 1, 500 μg s.c.",76%
same,reduction of serum TNF-α levels as compared to LPS only,"serum TNF-α [1]; experiment 2, 500 μg s.c.",89%
same,reduction of serum TNF-α levels as compared to LPS+saline,"serum TNF-α [1]; experiment 2, 500 μg s.c.",85%
same,reduction of serum TNF-α levels as compared to LPS only,"serum TNF-α [1]; experiment 3, 500 μg s.c.",85%
same,reduction of serum TNF-α levels as compared to LPS+saline,"serum TNF-α [1]; experiment 3, 500 μg s.c.",84%
same,overall reduction of serum TNF-α levels as compared to LPS only,"serum TNF-α [1]; experiments 1-3, 500 μg s.c.",85.4±2.98%
same,"serum TNF-α, mean optical density (OD) in the ELISA",serum TNF-α [2],0.147 ± 0.004 OD
same,effect on serum TNF-α levels in LPS-stimulated mice,serum TNF-α [2],complete inhibition
same,"decrease in inhibitory effect against purified TACE, as loss in concentration of the compound",purified TACE,no decrease
"CC(C)CC(CC(=O)NO)C(=O)N[C@@H](Cc1ccc2ccccc2c1)C(=O)N[C@@H](C)C(N)=O (stereo partly drawn) [Compound A, N-{D,L-2-(hydroxyaminocarbonyl)methyl-4-methylpentanoyl}L-3-(2'naphthyl)-a lanyl-L-alanine amide, reference compound]",Serum TNF-α level,serum TNF-α [1],65 pg/mL
same,reduction of serum TNF-α levels as compared to the saline/DMSO control,"serum TNF-α [1]; 500 μg s.c., 400 μg LPS i.v., 2 hours",approximately 60%
same,"serum TNF-α, mean optical density (OD) in the ELISA",serum TNF-α [2],0.299 ± 0.023 OD
same,effect on serum TNF-α levels in LPS-stimulated mice,serum TNF-α [2],no effect
same,"decrease in inhibitory effect against purified TACE, as loss in concentration of the compound",purified TACE,3-4 fold
